The values below are quoted from earlier work in patent US20080260771A1, “PROSTATE DISORDER(S) PHYTO-NUTRACEUTICAL SYNERGISTIC COMPOSITION” (priority 2006, published 2008).

One data set relates to prostate cancer. The conditions noted are these: supranutritional doses of selenium, clinical trials.
Data set [1] relates to human prostate cancer cells. The conditions noted are these: not in normal prostate epithelial cells.

With Vitamin E, the “tumor growth and lung metastases” value in the data set on prostate tumor is “significantly suppressed tumor growth”.
As to `[Se]` [Selenium], the “reduction of prostate cancer incidence” value with prostate cancer is listed as 50%. In data set [1], the apoptotic death result is “induces rapid apoptotic death”.
